Columns and labels:
[1] = test system: formalin-induced inflammatory pain; test: Formalin-induced spontaneous inflammatory pain (licking/flinching duration); format: in vivo, mice; conditions: intraplantar RvE1 20 ng, 10 min before intraplantar formalin
[2] = test system: proinflammatory cytokines (TNF-α, IL-1β, IL-6) and chemokines (MCP-1, MIP-1α); test: Cytokine array of inflamed hindpaw skin after carrageenan; format: in vivo, mouse; conditions: intraplantar RvE1 20 ng prior to CRG; 2 h after CRG
Protocol: The mouse cytokine array kits were purchased from R&D. Protein samples were prepared in the same way as for Western blotting analysis. Each reaction was performed according to manufacturer's protocol using 400 μg proteins. In brief, protein samples were incubated with a blot (array) that is pre-coated with 40 cytokines/chemokines for 24 h at 4° C. The remaining procedures were similar to that of Western blotting. Also see Gao et al., 2009^12.

[3] = test system: SNL-induced neuropathic pain; test: Neuropathic pain model induced by spinal nerve ligation (SNL); format: in vivo, mice
Protocol: Animals and pain models. Adult CD1 mice (male, 25-32 g) were used for most experiments. Knockout mice were used lacking TNFR1/II (Tnfrsf1a/1b^−/−) and TRPV1 (Trpv1^−/−) and C57BL/6 wild-type control mice, all from Jackson, for some experiments. All animal procedures performed in this study were approved by the Harvard Medical Area Standing Committee on Animals. 20 μl of diluted formalin (5%), carrageenan (CRG, 1%), or complete Freund's adjuvant (CFA) were injected into the plantar surface of a hindpaw to produce acute, persistent, or chronic inflammatory pain, respectively. Postoperative pain was also produced through hindpaw incision^36 and neuropathic pain by ligation of the spinal nerve^37.
Behavioral analysis. Mice were habituated in the testing environment for two days and performed behavioral testing in a blinded manner. Formalin-evoked spontaneous inflammatory pain was assessed by measuring duration (seconds) animals spent on licking/flinching the affected paws every 5 min for 45 min. Capsaicin-induced spontaneous pain was aslo assessed for 10 min. For testing mechanical sensitivity, mice were put in boxes on an elevated metal mesh floor and stimulated hindpaw with a series of von Frey hairs with logarithmically incrementing stiffness (0.02-2.56 grams, Stoelting), presented perpendicular to the plantar surface. It was determined the 50% paw withdrawal threshold using Dixon's up-down method^40. For testing heat sensitivity, mice were placed in plastic boxes and tested heat sensitivity using Hargreaves radiant heat apparatus (IITC Life Science Inc.). The basal paw withdrawal latency was adjusted to 9-12 seconds and set a cut-off of 20 seconds to prevent tissue damage. The percent maximal possible antinociceptive effect (% M.P.E) was calculated using the equation % M.P.E.=[(PL−BL2)/(BL1−BL2)]×100. BL1, baseline latency before inflammation; BL2, baseline latency after inflammation but before drug injection; PL, latency post drug injection.

CC[C@@H](O)/C=C/C=C\C[C@@H](O)/C=C/C=C/C=C\[C@@H](O)CCCC(=O)O [RvE1, 5S,12R,18R-trihydroxyeicosapentaenoic acid]
formalin-evoked acute pain [1]: rapidly attenuated | expression of proinflammatory cytokines (TNF-α, IL-1β, IL-6) and chemokines (MCP-1, MIP-1α) in inflamed hindpaws [2]: reducing | SNL-induced heat hyperalgesia ([3]; 10 ng, i.t., one day after spinal nerve ligation): reduces SNL-induced heat hyperalgesia | nerve injury-induced hyperalgesia ([3]; neuropathic pain model induced by spinal nerve ligation): potently attenuate

From US20120245229A1, “METHOD FOR TREATING NEUROPATHIC PAIN” (priority 2009, published 2012)
